Reference: ChEMBL document CHEMBL3045859, “Search for monoglyceride lipase inhibitors: synthesis and screening of arylthioamides derivatives” (Med Chem Res, 2009)

What was measured:
[1] = target: T1, Fatty-acid amide hydrolase 1 (Homo sapiens, UniProt O00519); assay: Inhibition of Homo sapiens (human) recombinant fatty acid amide hydrolase assessed as inhibition of [3H]-AEA hydrolysis after 10 min by liquid scintillation counting
T1 sequence (O00519 whole entry): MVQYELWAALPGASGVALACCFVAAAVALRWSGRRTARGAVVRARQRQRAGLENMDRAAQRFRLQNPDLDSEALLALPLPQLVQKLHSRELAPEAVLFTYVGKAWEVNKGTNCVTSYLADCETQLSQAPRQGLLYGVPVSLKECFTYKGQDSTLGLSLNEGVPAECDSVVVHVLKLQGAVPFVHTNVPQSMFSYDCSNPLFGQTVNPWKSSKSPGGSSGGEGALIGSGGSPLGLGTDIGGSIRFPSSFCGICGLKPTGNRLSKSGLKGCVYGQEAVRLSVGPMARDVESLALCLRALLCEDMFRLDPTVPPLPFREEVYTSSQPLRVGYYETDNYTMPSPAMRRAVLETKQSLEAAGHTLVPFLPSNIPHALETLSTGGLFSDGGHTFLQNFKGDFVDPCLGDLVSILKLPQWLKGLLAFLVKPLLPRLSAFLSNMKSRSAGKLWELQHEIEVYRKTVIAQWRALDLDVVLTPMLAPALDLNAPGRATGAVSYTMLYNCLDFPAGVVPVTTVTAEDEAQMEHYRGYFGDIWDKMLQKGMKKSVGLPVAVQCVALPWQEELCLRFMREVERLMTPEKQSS

Monoglyceride lipase = target: T2, Monoglyceride lipase (Homo sapiens, UniProt Q99685); assay: Inhibition of Homo sapiens (human) recombinant monoacylglycerol lipase assessed as inhibition of [3H]-2-oleolylglycerol hydrolysis after 10 min by liquid scintillation counting
T2 sequence (Q99685 whole entry): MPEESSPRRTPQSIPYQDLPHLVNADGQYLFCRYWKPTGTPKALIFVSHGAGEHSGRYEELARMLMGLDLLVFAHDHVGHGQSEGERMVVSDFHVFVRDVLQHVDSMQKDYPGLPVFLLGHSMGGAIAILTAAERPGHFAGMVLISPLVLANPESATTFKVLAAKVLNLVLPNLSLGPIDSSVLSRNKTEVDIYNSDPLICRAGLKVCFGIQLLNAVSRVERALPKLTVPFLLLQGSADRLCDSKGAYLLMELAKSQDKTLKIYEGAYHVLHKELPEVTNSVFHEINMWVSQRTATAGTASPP

Row | SMILES | IC50 [1] [µM] | IC50 (Monoglyceride lipase) [µM]
1 | S=C(c1ccccc1Cl)N1CCOCC1 | > 1000 | 20
2 | S=C(Cc1ccc(Cl)cc1)N1CCOCC1 | 77.6 | 14.8
3 | S=C(c1ccc(C2CCCCC2)cc1)N1CCOCC1 | > 1000 | > 1000
4 | COC(=O)c1ccc(C(=S)N2CCOCC2)cc1 | > 1000 | 30.9
5 | S=C(Cc1ccccc1Cl)N1CCOCC1 | > 1000 | 24.5
6 | S=C(c1ccc(-c2ccccc2)cc1)N1CCOCC1 | 30.9 | 19.5
7 | COc1ccc(CC(=S)N2CCOCC2)cc1OC | > 1000 | > 1000
8 | S=C(NCCc1ccccc1)c1ccccc1 [N-PHENETHYLBENZOTHIOAMIDE] | > 1000 | > 1000
9 | O=C(c1ccccc1Cl)N1CCOCC1 [(2-CHLOROPHENYL)(MORPHOLINO)METHANONE] | > 1000 | > 1000
10 | S=C(c1ccccc1)N1CCCCC1 | > 1000 | > 1000
11 | S=C(Cc1ccc(-c2ccccc2)cc1)NCCc1ccccc1 | 724 | 537
12 | S=C(c1ccc(Cl)cc1)N1CCOCC1 [(4-CHLOROPHENYL)(MORPHOLINO)METHANETHIONE] | 302 | 77.6
13 | S=C(c1ccc(Cl)c(Cl)c1)N1CCOCC1 [(3,4-DICHLOROPHENYL)(MORPHOLINO)METHANETHIONE] | > 1000 | > 1000
14 | Cc1cccc(C(=S)N2CCCCC2)c1 | 61.7 | > 1000
15 | O=C(c1ccc(Cl)cc1)N1CCOCC1 [(4-CHLOROPHENYL)(MORPHOLINO)METHANONE] | > 1000 | > 1000
16 | COC(=O)c1ccc(C(=S)NCCc2ccccc2)cc1 | > 1000 | 26.3
17 | S=C(NCCc1ccccc1)c1ccc(Br)cc1 | > 1000 | 97.7
18 | S=C(c1ccc(Br)cc1)N1CCOCC1 [(4-BROMOPHENYL)(MORPHOLINO)METHANETHIONE] | > 1000 | 31.6
19 | S=C(NCCc1ccccc1)c1ccc(Cl)cc1Cl | > 1000 | 79.4

Row | SMILES | IC50 [1] [µM] | IC50 (Monoglyceride lipase) [µM]
20 | Clc1ccc(CN2CCOCC2)cc1 [4-(4-CHLOROBENZYL)MORPHOLINE] | > 1000 | > 1000
21 | c1ccc(-c2ccc(CN3CCOCC3)cc2)cc1 [4-(BIPHENYL-4-YLMETHYL)MORPHOLINE] | > 1000 | > 1000
22 | CN(C)c1ccc(C(=S)N2CCOCC2)cc1 [(4-(DIMETHYLAMINO)PHENYL)(MORPHOLINO)METHANETHIONE] | > 1000 | > 1000
23 | S=C(c1cccc(Cl)c1)N1CCOCC1 [(3-CHLOROPHENYL)(MORPHOLINO)METHANETHIONE] | > 1000 | > 1000
24 | O=C(c1ccc(-c2ccccc2)cc1)N1CCOCC1 | > 1000 | > 1000
25 | Clc1ccccc1CN1CCOCC1 | > 1000 | > 1000
26 | S=C(Cc1ccccc1)N1CCOCC1 | > 1000 | > 1000
27 | O=[N+]([O-])c1cccc(C(=S)N2CCOCC2)c1 | 245 | 9.55
28 | Fc1ccc(C(=S)NCCc2ccccc2)cc1 | > 1000 | > 1000
29 | Oc1ccccc1C(=S)N1CCOCC1 [(2-HYDROXYPHENYL)(MORPHOLINO)METHANETHIONE] | > 1000 | 60.3
30 | S=C(c1ccc(Cl)cc1Cl)N1CCOCC1 [(2,4-DICHLOROPHENYL)(MORPHOLINO)METHANETHIONE] | > 1000 | > 1000
31 | Cc1ccc(CC(=S)N2CCOCC2)cc1 | 49 | 24
32 | S=C(NCCc1ccccc1)c1ccccc1Cl | > 1000 | 166
33 | S=C(NCCc1ccccc1)c1ccc(Cl)c(Cl)c1 | 53.7 | 75.9
34 | Oc1ccc(C(=S)NCCc2ccccc2)cc1O | 724 | 525
35 | S=C(c1ccccc1)N1CCOCC1 [MORPHOLINO(PHENYL)METHANETHIONE] | > 1000 | > 1000
36 | S=C(Cc1ccc(-c2ccccc2)cc1)N1CCOCC1 | 30.9 | 5.75
37 | Oc1ccc(C(=S)N2CCOCC2)cc1 [(4-HYDROXYPHENYL)(MORPHOLINO)METHANETHIONE] | 562 | 204
38 | S=C(NCCc1ccccc1)c1ccc(Cl)cc1 | 407 | 437
